From ChEMBL document CHEMBL1201862, “PubChem BioAssay data set” (2004)
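Protocol summary: plate cells (96-well), add compound at 5 concentrations, incubate 48 h, interpolate endpoints linearly. Here, GI50 denotes the concentration required for 50% inhibition of growth.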 Activity calls are given as the source filed them. Rule as the data show it: active = GI50 up to about 1.1 µM and inactive = higher.

Tests used:
Assay in all cases: NCI tumour cell line growth inhibition, 48 h
[1] = tested on: 786-0
[2] = tested on: A498
[3] = tested on: A549
[4] = tested on: ACHN
[5] = tested on: BT-549
[6] = tested on: CAKI-1
[7] = tested on: CCRF-CEM
[8] = tested on: COLO 205
[9] = tested on: DU-145
[10] = tested on: EKVX
[11] = tested on: HCC 2998
[12] = tested on: HCT-116
[13] = tested on: HCT-15
[14] = tested on: HL-60
[15] = tested on: HOP-62
[16] = tested on: HOP-92
[17] = tested on: HT-29
[18] = tested on: Hs-578T
[19] = tested on: IGROV-1
[20] = tested on: K562
[21] = tested on: KM12
[22] = tested on: LOX IMVI
[23] = tested on: M14
[24] = tested on: MCF7
[25] = tested on: MDA-MB-231
[26] = tested on: MDA-MB-435
[27] = tested on: MDA-N
[28] = tested on: Malme-3M
[29] = tested on: NCI-H226
[30] = tested on: NCI-H23
[31] = tested on: NCI-H460
[32] = tested on: NCI-H522
[33] = tested on: NCI/ADR-RES
[34] = tested on: OVCAR-3
[35] = tested on: OVCAR-4
[36] = tested on: OVCAR-5
[37] = tested on: OVCAR-8
[38] = tested on: PC-3
[39] = tested on: RPMI-8226
[40] = tested on: RXF 393
[41] = tested on: SF-268
[42] = tested on: SF-295
[43] = tested on: SF-539
[44] = tested on: SK-MEL-28
[45] = tested on: SK-MEL-2
[46] = tested on: SK-MEL-5
[47] = tested on: SK-OV-3
[48] = tested on: SN12C
[49] = tested on: SNB-19
[50] = tested on: SNB-75
[51] = tested on: SR
[52] = tested on: SW-620
[53] = tested on: T47D
[54] = tested on: TK-10
[55] = tested on: U-251
[56] = tested on: UACC-257
[57] = tested on: UACC-62
[58] = tested on: UO-31
[59] = tested on: MOLT-4

In the case of `[N-]=[N+]=NCC(=O)c1cnc(O)nc1O`, the GI50 [1] is reported as > 100 µM (inactive), the GI50 [2] is reported as > 100 µM (inactive) and the GI50 [3] is reported as > 100 µM (inactive). For the same molecule, the GI50 [4] was > 100 µM (inactive), the GI50 [5] was > 100 µM (inactive) and the GI50 [6] was > 100 µM (inactive). The GI50 [7] was > 100 µM (inactive), the GI50 [8] was > 100 µM (inactive) and the GI50 [9] was > 100 µM (inactive). The GI50 [10] was > 100 µM (inactive), the GI50 [11] was > 100 µM (inactive) and the GI50 [12] was > 100 µM (inactive). The GI50 [13] was over 100 µM, the GI50 [14] was > 100 µM (inactive) and the GI50 [15] was > 100 µM (inactive). For the same molecule, the GI50 [16] was > 100 µM (inactive), the GI50 [17] was > 100 µM (inactive) and the GI50 [18] was > 100 µM (inactive). For the same molecule, the GI50 [19] was > 100 µM (inactive), the GI50 [20] was > 100 µM (inactive) and the GI50 [21] was > 100 µM (inactive). For the same molecule, the GI50 [22] was > 100 µM (inactive), the GI50 [23] was > 100 µM (inactive) and the GI50 [24] was > 100 µM (inactive). For the same molecule, the GI50 [25] was > 100 µM (inactive), the GI50 [26] was > 100 µM (inactive) and the GI50 [27] was > 100 µM (inactive). For the same molecule, the GI50 [28] was > 100 µM (inactive), the GI50 [29] was > 100 µM (inactive) and the GI50 [30] was > 100 µM (inactive). For the same molecule, the GI50 [31] was > 100 µM (inactive), the GI50 [32] was > 100 µM (inactive) and the GI50 [33] was > 100 µM (inactive). For the same molecule, the GI50 [34] was > 100 µM (inactive), the GI50 [35] was > 100 µM (inactive) and the GI50 [36] was > 100 µM (inactive). For the same molecule, the GI50 [37] was > 100 µM (inactive), the GI50 [38] was > 100 µM (inactive) and the GI50 [39] was > 100 µM (inactive). For the same molecule, the GI50 [40] was > 100 µM (inactive), the GI50 [41] was > 100 µM (inactive) and the GI50 [42] was > 100 µM (inactive). For the same molecule, the GI50 [43] was > 100 µM (inactive), the GI50 [44] was > 100 µM (inactive) and the GI50 [45] was > 100 µM (inactive). The GI50 [46] was > 100 µM (inactive), the GI50 [47] was > 100 µM (inactive) and the GI50 [48] was > 100 µM (inactive). For the same molecule, the GI50 [49] was > 100 µM (inactive), the GI50 [50] was > 100 µM (inactive) and the GI50 [51] was > 100 µM (inactive). For the same molecule, the GI50 [52] was > 100 µM (inactive), the GI50 [53] was > 100 µM (inactive) and the GI50 [54] was > 100 µM (inactive). The GI50 [55] was > 100 µM (inactive), the GI50 [56] was > 100 µM (inactive) and the GI50 [57] was > 100 µM (inactive). The GI50 [58] was > 100 µM (inactive).
In the case of `CC1=Cc2ccc(C)cc2C(=O)C1=O`, the GI50 [1] is reported as 1.85 µM (inactive), the GI50 [2] is reported as 22.4 µM (inactive) and the GI50 [3] is reported as 23.7 µM (inactive). For the same molecule, the GI50 [4] was 1.95 µM (inactive), the GI50 [5] was 21.2 µM (inactive) and the GI50 [6] was 5.07 µM (inactive). For the same molecule, the GI50 [7] was 0.176 µM (active), the GI50 [8] was 6.07 µM (inactive) and the GI50 [9] was 16.8 µM (inactive). The GI50 [10] was 18.3 µM (inactive), the GI50 [11] was 14.9 µM (inactive) and the GI50 [12] was 5.47 µM (inactive). The GI50 [13] was 19.3 µM, the GI50 [14] was 1 µM (active) and the GI50 [15] was 21.3 µM (inactive). The GI50 [16] was 6.18 µM (inactive), the GI50 [17] was 20.1 µM (inactive) and the GI50 [18] was 13.9 µM (inactive). For the same molecule, the GI50 [19] was 14.4 µM (inactive), the GI50 [20] was 2.07 µM (inactive) and the GI50 [21] was 17.6 µM (inactive). The GI50 [22] was 4.66 µM (inactive), the GI50 [23] was 4.81 µM (inactive) and the GI50 [24] was 6.97 µM (inactive). For the same molecule, the GI50 [25] was 20.6 µM (inactive), the GI50 [26] was 2.06 µM (inactive) and the GI50 [27] was 4.18 µM (inactive). The GI50 [59] was 0.605 µM (active), the GI50 [29] was 36.1 µM (inactive) and the GI50 [30] was 17.3 µM (inactive). For the same molecule, the GI50 [31] was 19.8 µM (inactive), the GI50 [32] was 1.64 µM (inactive) and the GI50 [33] was 18.8 µM (inactive). The GI50 [34] was 4.79 µM (inactive), the GI50 [35] was 4.94 µM (inactive) and the GI50 [36] was 18.3 µM (inactive). For the same molecule, the GI50 [37] was 5.3 µM (inactive), the GI50 [38] was 15.8 µM (inactive) and the GI50 [39] was 2.16 µM (inactive). For the same molecule, the GI50 [40] was 1.83 µM (inactive), the GI50 [41] was 8.67 µM (inactive) and the GI50 [42] was 18.5 µM (inactive). The GI50 [43] was 6.28 µM (inactive), the GI50 [44] was 21.6 µM (inactive) and the GI50 [45] was 19.9 µM (inactive). For the same molecule, the GI50 [46] was 20.4 µM (inactive), the GI50 [47] was 13.9 µM (inactive) and the GI50 [48] was 5.04 µM (inactive). For the same molecule, the GI50 [49] was 22.2 µM (inactive), the GI50 [50] was 8.3 µM (inactive) and the GI50 [51] was 1.58 µM (inactive). For the same molecule, the GI50 [52] was 2.81 µM (inactive), the GI50 [53] was 1.82 µM (inactive) and the GI50 [54] was 1.83 µM (inactive). The GI50 [55] was 20.4 µM (inactive), the GI50 [56] was 5.89 µM (inactive) and the GI50 [57] was 20.2 µM (inactive). For the same molecule, the GI50 [58] was 1.64 µM (inactive).
